Laboratory results published in patent US20130017548A1, “SCREENING METHOD” (AJINOMOTO, INC., priority 2009, published 2013).

Columns and labels:
PIKfyve = target: T1, PIKfyve (Homo sapiens, UniProt Q9Y2I7); experiment: Assessment of lipid kinase inhibitory activity (competition with biotinyl acyl phosphate ATP derivative in Jurkat cell extract, LC-MS/MS); format: binding; settings: test compound 30 nM or 300 nM, FIG. 1
T1 construct: the supernatant resulting from centrifugation at 100,000×g for 60 minutes was used as a cell extract; endogenous in cells; host or cells: Jurkat (human T-lymphocyte line), cell extract
T1 sequence (Q9Y2I7 whole entry): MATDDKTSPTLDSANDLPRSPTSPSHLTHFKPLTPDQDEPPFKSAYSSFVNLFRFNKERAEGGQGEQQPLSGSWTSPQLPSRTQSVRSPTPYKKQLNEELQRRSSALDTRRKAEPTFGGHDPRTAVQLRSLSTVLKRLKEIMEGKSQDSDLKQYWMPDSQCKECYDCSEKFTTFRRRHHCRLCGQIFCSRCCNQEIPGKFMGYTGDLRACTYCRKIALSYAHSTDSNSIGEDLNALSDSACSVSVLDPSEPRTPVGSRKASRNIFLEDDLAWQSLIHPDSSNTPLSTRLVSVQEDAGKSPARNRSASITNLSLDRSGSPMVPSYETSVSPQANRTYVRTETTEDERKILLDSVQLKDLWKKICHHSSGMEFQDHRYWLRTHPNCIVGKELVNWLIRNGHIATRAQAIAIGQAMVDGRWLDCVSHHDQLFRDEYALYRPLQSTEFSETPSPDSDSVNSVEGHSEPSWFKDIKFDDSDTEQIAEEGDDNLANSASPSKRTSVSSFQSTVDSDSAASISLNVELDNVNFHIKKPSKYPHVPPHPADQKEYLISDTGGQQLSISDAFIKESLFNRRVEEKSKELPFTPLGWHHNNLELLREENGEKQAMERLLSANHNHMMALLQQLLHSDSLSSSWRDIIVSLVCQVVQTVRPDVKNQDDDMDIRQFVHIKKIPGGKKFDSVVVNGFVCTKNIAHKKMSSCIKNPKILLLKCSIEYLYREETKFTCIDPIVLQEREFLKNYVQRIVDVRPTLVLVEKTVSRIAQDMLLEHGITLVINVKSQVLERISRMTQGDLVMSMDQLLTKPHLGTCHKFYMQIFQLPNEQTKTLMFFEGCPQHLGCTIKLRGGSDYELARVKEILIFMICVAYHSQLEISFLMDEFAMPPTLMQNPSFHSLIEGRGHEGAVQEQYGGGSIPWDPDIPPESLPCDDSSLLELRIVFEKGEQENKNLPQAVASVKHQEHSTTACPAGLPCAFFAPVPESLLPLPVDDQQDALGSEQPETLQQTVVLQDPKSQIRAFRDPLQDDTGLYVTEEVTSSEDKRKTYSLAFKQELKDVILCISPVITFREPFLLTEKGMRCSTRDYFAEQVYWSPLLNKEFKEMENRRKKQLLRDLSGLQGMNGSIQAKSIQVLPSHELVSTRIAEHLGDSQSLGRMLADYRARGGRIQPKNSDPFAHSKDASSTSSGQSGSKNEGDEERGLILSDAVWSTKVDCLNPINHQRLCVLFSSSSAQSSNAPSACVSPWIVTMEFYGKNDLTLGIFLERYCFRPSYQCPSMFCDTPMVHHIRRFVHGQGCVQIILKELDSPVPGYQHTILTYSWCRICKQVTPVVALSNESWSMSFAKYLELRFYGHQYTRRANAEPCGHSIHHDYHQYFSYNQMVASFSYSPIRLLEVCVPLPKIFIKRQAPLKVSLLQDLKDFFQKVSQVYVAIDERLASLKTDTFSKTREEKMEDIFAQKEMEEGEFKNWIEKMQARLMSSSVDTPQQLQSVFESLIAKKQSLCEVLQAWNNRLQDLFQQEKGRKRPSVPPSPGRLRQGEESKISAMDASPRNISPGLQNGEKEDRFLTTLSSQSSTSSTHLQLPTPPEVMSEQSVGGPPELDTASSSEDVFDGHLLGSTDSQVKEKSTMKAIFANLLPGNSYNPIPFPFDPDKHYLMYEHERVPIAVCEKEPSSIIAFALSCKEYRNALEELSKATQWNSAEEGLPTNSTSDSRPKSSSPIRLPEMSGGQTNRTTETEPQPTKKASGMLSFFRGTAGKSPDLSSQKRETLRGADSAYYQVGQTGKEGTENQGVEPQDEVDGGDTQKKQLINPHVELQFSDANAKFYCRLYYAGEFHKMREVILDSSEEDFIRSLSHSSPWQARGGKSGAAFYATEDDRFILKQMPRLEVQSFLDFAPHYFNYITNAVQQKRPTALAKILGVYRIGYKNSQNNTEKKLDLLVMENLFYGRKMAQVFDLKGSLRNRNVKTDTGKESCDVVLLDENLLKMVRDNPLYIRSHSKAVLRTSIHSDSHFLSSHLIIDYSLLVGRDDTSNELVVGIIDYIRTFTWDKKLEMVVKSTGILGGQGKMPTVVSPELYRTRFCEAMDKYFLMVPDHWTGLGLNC
Procedure: Lipid kinase inhibitory activity was assessed according to the method described in Biochemistry 2007, 46, 350-358. Jurkat cell derived from human lymphocyte was suspended in a lysis buffer (20 mM Hepes, 150 mM NaCl, 0.1% TritonX-100, 20 mM MnCl2) by sonication, and the supernatant resulting from centrifugation at 100,000×g for 60 minutes was used as a cell extract. To the cell extract (5 mg/mL), a test compound (30 nM or 300 nM) or a solvent alone was added and incubated for 5 minutes. Then, an ATP derivative labeled with biotinyl acyl phosphate (20 μM) was added and incubated for 5 minutes, and the resultant was further subjected to digestion with trypsin. […] The biotin-labeled peptide was analyzed by LC-MS/MS for sequence identification and measurement of the elution amount of the lipid-kinase-derived peptide so as to assess competitive inhibitory activity of the test compound for the binding of the ATP derivative to various lipid kinases. […]
Using this assessment system, the inhibitory activity of the test compound for other lipid kinases was assessed (other lipid kinases may be commercially available or may be produced according to a method described in a known document) and the results thereof are shown in FIG. 1.

[1] = test system: mouse enterocolitis model; experiment: Inflammation suppressive action in mouse IL-10-/- cell transfer enterocolitis model; format: in vivo; settings: FIG. 3
Procedure: A method for producing a mouse IL-10^−/− cell transfer enterocolitis model is described, for example, in Gastroenterology. 2009 February; 136(2):564-74.e2. Epub 2008 Oct. 7.
Measurement of an intestine weight as a drug efficacy indicator was carried out according to the following method. On the last day for autopsy, large intestine from the anus to immediately before the cecum was removed. The content of the intestine was washed with physiological saline, water was roughly removed and then the weight was measured.
Results from the assessment of the inflammation suppressive action of Compound 1 in mouse enterocolitis model using this assessment system are shown in FIG. 3.

[2] = test system: IL-12 and IL-23 productions; settings: productions strongly induced by INF-γ; cited from earlier work
[3] = test system: IL-12b expression in mouse peritoneal macrophage; experiment: IL-12-production suppressive action by PIKfyve and Vac14 knockdown (siRNA, quantitative PCR); format: cell-based; settings: siRNA 1 μM, mouse interferon-γ and SAC stimulation 3.5 hours, normalized to GAPDH; FIG. 4
Procedure: Assessment of the effects of knockdown of PIKfyve and Vac14 expressed in mouse peritoneal macrophage using siRNA method was carried out as described below. Mouse peritoneal macrophage was isolated according to the method described in Laboratory Test Example 2, and subsequently suspended in Nucleofection solution attached to Mouse macrophage nucleofection kit (Lonza) to give 3.3×10^6 cells/mL. siRNA was added to the cell suspension to a final concentration of 1 μM and subjected to Nucleofection according to the attached protocol. The following siRNAs were used. […]
A FBS-free RPMI1640 medium was used for culture at 37° C. in the presence of 5% CO2 for 2 hours and then the medium was replaced by 0.5 ml of Dulbecco's MEM medium containing RPMI 1640 medium supplemented with 3% FBS for culture at 37° C. in the presence of 5% CO2 for 4 hours. Subsequently, 3.3 ng/mL mouse interferon-γ and 0.0017% (v/v) SAC were added and cultured for 3.5 hours and then the expression level of cytokine mRNA in the cell was measured.
Extraction and purification of total RNA from the mouse peritoneal macrophage was carried out using RNeasy midi kit (Qiagen 75144) according to the attached protocol. […] The resultant removed of the remaining […] was used as cDNA for quantitative PCR. […]

Q: With `Cc1cccc(C=NNc2cc(N3CCOCC3)n3nc(-c4ccncc4)cc3n2)c1` [Compound 1, N-(3-METHYL-BENZYLIDENE)-N′-(7-MORPHOLINE-4-YL-2-PYRIDINE-4-YL-PYRAZOLO[1,5-A]PYRIMIDINE-5-YL)-HYDRAZINE] as the compound, how does the “inhibitory activity against various lipid kinases (selectivity)” value (PIKfyve) read?
A: inhibitory activity selective to PIKfyve

Q: What about the “weight of the large intestine” value ([1]; 3, 10, 30 mg/kg, increase by IL-10-/- cell transfer) of the same compound?
A: suppressed dependent on the dosage

Q: And the “suppressive action on large intestine weight” value ([1]; administration group of 30 mg/kg, once a day)?
A: Significant suppressive action

Q: Which “inhibitory activity against various lipid kinases (selectivity)” value (PIKfyve) does the source give for `C(=NNc1cc(N2CCOCC2)n2nc(-c3ccncc3)cc2n1)c1ccc2cc[nH]c2c1` [Compound 2, N-(1H-INDOLE-6-YLMETHYLENE)-N′-(7-MORPHOLINE-4-YL-2-PYRIDINE-4-YL-PYRAZOLO[1,5-A]PYRIMIDINE-5-YL)-HYDRAZINE] here?
A: inhibitory activity selective to PIKfyve

Q: For `O=C1CCC(N2C(=O)c3ccccc3C2=O)C(=O)N1` (stereo not drawn) [thalidomide], which “suppression of IL-12 and IL-23 productions” value [2] is on record?
A: cannot sufficiently suppress

Q: With “Vac14 siRNA: Silencer Select Pre-designed siRNA (Sense SEQ ID NO: 11, Antisense SEQ ID NO:12, Ambion, s107929) as Vac14 siRNA (sense GAUUUACUCCAACAACCAATT; antisense UUGGUUGUUGGAGUAAAUCCT; chemistry not given here)” as the compound, how does the “IL-12b expression (fold-change over basal)” value [3] read?
A: significantly suppressed
